Measurements reported in PubChem BioAssay AID1361 (SRMLSC, 2008).
Activity calls are given as the source filed them. How the calls were made is not given here.

Assay: blockers of mitochondrial fusion, WT vs mutant – cell-based, chemical genetic, wild-type and mutant, confirmation (AID 1361)
Details: Cell-based mitochondrial fusion phenotype, imaging
[1] = mutant cells, measured here: mutant cell line IC50

SMILES | IC50 (WT cells) | IC50 [1]
COc1ccccc1C1(CCNS(=O)(=O)c2ccc(C)cc2)CCOC(C(C)C)C1 (centres undefined) | 21 µM | > 25 µM
CCOC(=O)c1oc2cccc(OCC(O)CNC(C)C)c2c1C (centres undefined) | > 25 µM (inactive) | > 25 µM
COc1ccccc1CNC(=O)c1ccc(-c2ccccc2C(F)(F)F)o1 | 21.3 µM | > 25 µM
Cc1c(C)c2ccc(OC3CCCCC3=O)cc2oc1=O (centres undefined) | > 25 µM (inactive) | > 25 µM
Cc1ccccc1NC(=O)CNc1ccccc1N1CCCCC1 | > 25 µM (inactive) | > 25 µM
O=C(N/N=C/c1c(Cl)cccc1Cl)c1n[nH]c2c1CCCC2 | > 25 µM (inactive) | > 25 µM
Cc1ccc(C2=NN(S(=O)(=O)c3ccccc3)C(c3ccccc3O)C2)cc1 (centres undefined) | 3.89 µM | 24.4 µM
Cc1ccccc1COC(=O)c1nn(-c2ccccc2)nc1N | > 25 µM (inactive) | > 25 µM
COC(=O)Cc1ccc(N(Cc2ccccc2F)S(=O)(=O)c2ccc(C)cc2)cc1 | 3.34 µM | > 25 µM
CCC(C)(C)c1ccc2c(c1)C(=O)c1ccccc1C2=O | 18.6 µM | > 25 µM
O=C(NC(Cc1c[nH]c2ccccc12)C(=O)Nc1ccc(OC(F)(F)F)cc1)c1cccs1 (centres undefined) | > 25 µM (inactive) | > 25 µM
Cc1cc(N2C(=O)C=CC2=O)c([N+](=O)[O-])cc1C | > 25 µM (inactive) | > 25 µM
Cc1nc(N2CCCCC2C)c2c(C)c(C(=O)Nc3cccc(C(F)(F)F)c3)sc2n1 (centres undefined) | 10.6 µM | > 25 µM
Cc1cc(C)cc(NC(=S)NC2CC3CCC(C2)N3Cc2ccco2)c1 (centres undefined) | > 25 µM (inactive) | > 25 µM
COc1ccc(OC)c(C(=O)c2coc3ccc(OC)cc23)c1 | > 25 µM (inactive) | > 25 µM
N#C/C(=C\c1cccc(NC(=O)c2ccccc2Cl)c1)C(=O)NCCc1ccccc1 | 10.9 µM | > 25 µM
O=c1cc(-c2ccc(C3CCCCC3)cc2)[nH][nH]1 | > 25 µM (inactive) | > 25 µM
O=C1c2ccccc2OC2(C=Cc3ccccc3O2)N1Cc1ccccc1 (centres undefined) | 5.8 µM | > 25 µM
CSc1nc2ccc(NS(=O)(=O)c3c(Cl)cccc3Cl)cc2s1 | 19.3 µM | > 25 µM
Cc1cc(NC(=S)N(Cc2ccc(Br)cc2)Cc2ccc(C(=O)O)cc2)ccc1Cl | 16.3 µM | > 25 µM
COC(=O)C1=C(O)C(C(=O)OC)C(c2ccc(C)cc2)C(C#N)(C#N)C1c1ccc(C)cc1 (centres undefined) | 4.71 µM | > 25 µM

SMILES | IC50 (WT cells) | IC50 [1]
Cc1ccccc1NS(=O)(=O)c1cc(C(=O)N2CCc3ccccc3C2)ccc1C | > 25 µM (inactive) | > 25 µM
CC(NC(=O)COc1ccccc1-c1ccccc1)c1ccccc1 (centres undefined) | 15 µM | > 25 µM
CCc1nn(C(C)C(=O)NCCN2CCN(c3cccc(C)c3C)CC2)c(=O)c2cc3occc3n12 (centres undefined) | > 25 µM (inactive) | > 25 µM
CCOc1ccccc1-n1c(CN2CCN(C(=O)c3ccco3)CC2)nc2ccccc2c1=O | > 25 µM (inactive) | > 25 µM
Cc1cc(NC(=S)N(Cc2cccc(Br)c2)CC2CCC(C(=O)O)CC2)ccc1Cl (centres undefined) | 21.9 µM | > 25 µM
CCCCN(CCCC)CCNC(=O)Cc1nc2c(c(=O)[nH]c(=O)n2C)n1C | > 25 µM (inactive) | > 25 µM
CCN=c1scc(-c2ccco2)n1/N=C/c1ccc(OC)c(O)c1 | > 25 µM (inactive) | > 25 µM
Oc1ccccc1CN(Cc1ccco1)CC(O)COCc1ccc(Cl)cc1 (centres undefined) | 19.1 µM | > 25 µM
N=c1c2c(n(Cc3ccc(F)cc3)c3c1CCC3)CCC2 | 11.2 µM | > 25 µM
CCC(C)n1c(SCc2ccccc2)nc2ccsc2c1=O (centres undefined) | 22.9 µM | > 25 µM
COc1ccc(OC)c(S(=O)(=O)Nc2ccc(Oc3ccccc3)cc2)c1 | > 25 µM (inactive) | > 25 µM
NC(=O)c1ccc(NC(=O)COC(=O)c2c3c(nc4ccccc24)/C(=C\c2ccc4c(c2)OCO4)CCC3)cc1 | 8.77 µM | > 25 µM
COc1cc2[nH]c(=O)n(CCC(=O)N3CCN(c4cccc(C)c4C)CC3)c(=O)c2cc1OC | > 25 µM (inactive) | > 25 µM
COc1cc(CNn2cn[nH]c2=S)cc(Br)c1OCc1ccccc1F | 19.7 µM | > 25 µM
O=C(N/N=C/c1cccc(F)c1)c1cc(-c2ccco2)nc2ccccc12 | > 25 µM (inactive) | > 25 µM
Fc1ccc(Nc2nc(N/N=C/c3ccco3)nc(N3CCCCC3)n2)cc1 | 19.3 µM | > 25 µM
COc1ccc(C(=O)NN(C)c2nc(-c3ccccc3)nnc2C(F)(F)F)cc1 | > 25 µM (inactive) | > 25 µM
CN1C=CC=C/C1=C1\SC(=S)N(c2ccccc2)C1=O | > 25 µM (inactive) | > 25 µM
O=C(Nc1cc(Cl)ccc1Oc1ccccc1)c1ccc(F)cc1 | 22.7 µM | > 25 µM
COc1ccc(-c2cc3nc(C)cc(N4CC(C)CC(C)C4)n3n2)cc1 (centres undefined) | 17.8 µM | 19.4 µM
CCc1cccc(C)c1NC(=S)NCCc1c(C)[nH]c2ccc(C)cc12 | > 25 µM (inactive) | > 25 µM

SMILES | IC50 (WT cells) | IC50 [1]
COc1ccccc1CNC(=O)c1ccccc1OCc1ccc(F)cc1 | 21.8 µM | > 25 µM
Cc1cc(CC(C)C)n(-c2nc3ccccc3c(=O)n2OCc2ccccc2)n1 | > 25 µM (inactive) | > 25 µM
COc1cc(OC)cc(C(=O)N2CCC(n3c(C)nc4cc(F)ccc43)CC2)c1 | > 25 µM (inactive) | > 25 µM
CCCCC(=O)NC(c1ccc([N+](=O)[O-])cc1)c1c(O)ccc2ccccc12 (centres undefined) | > 25 µM (inactive) | > 25 µM
Cc1ccc(NC(=O)C2SC(=Nc3ccccc3)C(C(=O)Nc3ccc(Cl)cc3)=C2N)cc1 (centres undefined) | > 25 µM (inactive) | > 25 µM
COc1ccc(/C=N/N(Cc2ccccc2)c2ccccc2)cc1O | 11.6 µM | > 25 µM
CCOC(=O)C1=C(C)NC(C)=C(C(=O)OC)C1c1cccc(Cl)c1Cl (centres undefined) | 20.4 µM | > 25 µM
CC(c1ccco1)N(C(=O)COc1ccccc1[N+](=O)[O-])c1ccccn1 (centres undefined) | > 25 µM (inactive) | > 25 µM
COc1cccc(-c2cnc(OC(C)(C)C)nc2OC(C)(C)C)c1 | 24 µM | > 25 µM
CC(C)=CCc1c(O)c(CC=C(C)C)c2c(c1O)C(=O)CC(c1ccc(O)cc1)O2 (centres undefined) | 10.7 µM | > 25 µM
Brc1cnc(N2CCCCC2)nc1N1CCOCC1 | > 25 µM (inactive) | > 25 µM
CCCCN(C(=O)c1cccc2c(=O)c(C)c(-c3ccccc3)oc12)c1ccccc1 | 14.7 µM | > 25 µM
COC(=O)C1CCN(C(=O)c2cc(OC)c(OC)c(OC)c2)CC1 | > 25 µM (inactive) | > 25 µM
COc1ccc(OCC(O)CNCc2ccco2)cc1 (centres undefined) | > 25 µM (inactive) | > 25 µM
O=C(CNC(=S)N(Cc1ccccc1)Cc1cccs1)NCc1ccc(F)cc1 | > 25 µM (inactive) | > 25 µM
CN(CC(=O)O/N=C(\N)c1cccc([N+](=O)[O-])c1)S(=O)(=O)c1ccccc1 | > 25 µM (inactive) | > 25 µM
O=C(c1ccccc1)c1nnc(-c2ccncc2)o1 | > 25 µM (inactive) | > 25 µM
CC(C)N1C(=O)/C(=C\c2nc3ccccc3c(=O)n2-c2ccccc2)c2ccccc21 | 18.8 µM | > 25 µM
Cc1nn(-c2ccccc2)c(C)c1NC(=O)c1ccc(S(=O)(=O)N2CCCC2)cc1 | > 25 µM (inactive) | > 25 µM
Cc1cc(C(=O)CSc2nnc(-c3ccc(Cl)cc3)n2CC2CCCO2)c(C)n1C (centres undefined) | > 25 µM (inactive) | > 25 µM
Cc1sc(NC(=O)c2ccccc2)c(C(c2ccc(Cl)cc2)N2CCN(CCO)CC2)c1C (centres undefined) | 13.5 µM | > 25 µM

SMILES | IC50 (WT cells) | IC50 [1]
Cc1cc(Nc2nc(Cl)c(Cl)cc2Cl)n(-c2ccccc2)n1 | 24.1 µM | > 25 µM
CCN(CC)P(=O)(Nc1ccc(C)cc1Br)c1ccc(N(C)C)cc1NC(=O)c1ccco1 (centres undefined) | 12.8 µM | > 25 µM
CCCCc1cc2c(s1)CCCC/C2=N/O | > 25 µM (inactive) | > 25 µM
CCOc1ccccc1N1CCN(C(=S)NC(=O)C23CC4CC(CC(C4)C2)C3)CC1 | 19.5 µM | 22.5 µM
CC(C)(C)n1nnnc1C(c1ccc(Cl)cc1)N(Cc1cccnc1)Cc1ccco1 (centres undefined) | > 25 µM (inactive) | > 25 µM
Clc1cccc(N=C2NN=C(c3ccc4c(c3)OCCO4)CS2)c1 | 15.9 µM | > 25 µM
O=C(COC(=O)C1(c2ccc(Cl)cc2)CCCC1)Nc1ncc(C(F)(F)F)cc1Cl | 18.2 µM | > 25 µM
CCSc1ccc2cc(OC)ccc2[n+]1CC | 23.1 µM | > 25 µM
Cc1cccc(N(C)C(=S)Oc2ccc3ccccc3c2)c1 | 8.79 µM | > 25 µM
Cc1ccc(C(C)C)c(OCCNC(=S)Nc2cccc3ccccc23)c1 | 6.51 µM | > 25 µM
CCCNC(=S)Nc1ccc2nc(-c3ccccn3)c(-c3ccccn3)nc2c1 | > 25 µM (inactive) | > 25 µM
CC12CCC(c3c(C(=O)O)nn(-c4ccc(F)cc4)c31)C2(C)C (centres undefined) | > 25 µM (inactive) | > 25 µM
Cc1oc(-c2ccccc2)nc1CN1C(=O)C(C)N=C(c2ccccc2F)c2cc(Cl)ccc21 (centres undefined) | 12.4 µM | > 25 µM
CCCC/C(C)=C/[C@@H](NP(=O)(c1ccccc1)c1ccccc1)c1ccccc1 | 9.84 µM | > 25 µM
CC(C)C(=O)Nc1nnc(SCC(=O)NCc2cccs2)s1 | > 25 µM (inactive) | > 25 µM
CC(C)(C)c1cc(/C=N/O)cc(C(C)(C)C)c1O | > 25 µM (inactive) | > 25 µM
COc1ccc(-c2nc3n(c(=O)c2C#N)CCCS3)cc1 | > 25 µM (inactive) | > 25 µM
COc1ccc(C(C)(C)C)cc1NC(=O)c1cncc(Br)c1 | > 25 µM (inactive) | > 25 µM
COc1ccc(S(=O)(=O)N2CCC[C@H]2C(=O)NC2=NCCS2)cc1 | > 25 µM (inactive) | > 25 µM
